According to patent publication US8980926B2, “2-aminoindole compounds and methods for the treatment of malaria” (Genzyme Corporation, priority 2009, dated 2015):
Like-named read-outs stand apart in the source and are kept apart here.

Legend:
[1] = tested on: P. berghei N-clone; assay: In vivo efficacy against P. berghei in mice (4-day suppressive test, oral); design: species or system P. berghei in Swiss Albino mice; conditions: for Average Day of Recrudescence: Study Day; for No. Cured: animals cured/group; for Recrudescence (no. animals/total): no parasites on Day 5 but later regressed; for % Suppression Day 5: vs untreated controls
Text: Because of ethical issues and costs, the acute P. berghei model in rodents is considered the “gold standard” for assessing anti-malarial efficacy in animal models. This model is adapted from Peters' “4-day suppressive test” (Peters, W. 1987. Chemotherapy and Drug Resistance in Malaria, p. 102-115, 2ed, vol. 1. Academic Press, Orlando, Fla.; Peters, W. 1975. The chemotherapy of rodent malaria, XXII. The value of drug-resistant strains of P. berghei in screening for blood schizontocidal activity. Ann Trop Med Parasitol 69:155-171). All studies were conducted in accordance with the Guide for the Care and Use of Laboratory Animals (National-Research-Council. 1996. Guide for the Care and Use of Laboratory Animals. National Academy Press, Washington, D.C.) and the PHS guidelines. Animals were maintained according to NIH guidelines and were allowed to acclimatize for 1 week prior to the commencement of studies. On Day 0, groups of 4-6-week old female Swiss Albino mice (n=5) were infected by tail vein injection with 0.2 ml heparinized blood diluted to contain 1×10^7 N-clone parasites. The aminoindole analogs were formulated in 1.6% lactic acid mixed sodium salt, 1% Tween 80, 9% ethanol and 20% Cerestar (hydroxypropyl β-cyclodextrin; Wacker Chimie) and were administered by oral gavage. […] Animals in the Control-group received vehicle alone. Dose concentration and frequency of dosing were based upon preliminary tolerability/exposure studies. On Day 4 post-infection (5th day of assay) blood was collected by tail-nick, and thin smear microscope slides were prepared and stained using Diff Quick®. Parasitized erythrocytes were counted and compared with the total number of erythrocytes per microscopic field to determine the percent parasitemia. A minimum of 350 erythrocytes were counted. Animals showing no detectable parasites on Day 4 were examined every 2-3 days to determine whether cure was sterile. Animals with no detectable parasites 28 days after cessation of dosing (Study Day 33) were considered cured.

[2] = tested on: P. berghei ANKA strain GFP MRA-865; assay: In vivo efficacy against P. berghei ANKA GFP in the humanized murine system; design: species or system P. berghei in mice; conditions: b.i.d.
[3] = tested on: P. knowlesi strain H1; assay: In vitro potency against P. knowlesi H1 in Rhesus blood cells (3H-hypoxanthine incorporation); type: cell-based; conditions: Plasmodium knowlesi, in Macaca mulatta, read-out: Potency (IC50; nM) Plasmodium spp. Pk H1
Description: Selected compounds were tested against P. knowlesi H1 strain parasites cultured in Rhesus blood cells as a surrogate for P. vivax infections using the method of Kocken and coworkers (Kocken, C. H., H. Ozwara, A. van der Wel, A. L. Beetsma, J. M. Mwenda, and A. W. Thomas. 2002. Plasmodium knowlesi provides a rapid in vitro and in vivo transfection system that enables double-crossover gene knockout studies. Infect Immun 70:655-660). Briefly, P. knowlesi were cultured in 2% Rhesus macaque erythrocytes (New England Primate Research Center) in RPMI culture media containing 10% Human O+ serum (Interstate Blood Bank). Schizont stage parasites were purified by floatation in 60% Percoll (GE life sciences) and allowed to reinvade to generate a synchronous population of ring stage parasites. Drug assays were performed by plating ring stage parasites at 0.5% parasitemia in triplicate, in RPMI containing 2.5 μg/ml hypoxanthine. Parasites were incubated for 24 hours with serially diluted test compounds. After 24 hours, thin smears were made to confirm that reinvasion had occurred, 0.5 μCi ^3H-labeled hypoxanthine (Perkin Elmer) were added to each well, and parasites were allowed to progress through S-phase to early schizonts. Cells were then harvested via glass filter plates and ^3H incorporation was measured by scintillation counting. Values were normalized to percentage of controls containing no drug, and IC50 values were generated (GraphPad Prism®).

[4] = Mammalian cytotoxicity, kidney epithelial; type: cell-based; conditions: normal human renal proximal tubule cells; read-out: Selectivity, Mammalian cytotoxicity (IC50; μM) Kidney epithelial
[5] = tested on: P. berghei ANKA strain; assay: In vitro potency against P. berghei ANKA; type: cell-based; conditions: Plasmodium berghei, read-out: Potency (IC50; nM) Plasmodium spp. Pb ANKA
[6] = Erythrocyte lysis; type: cell-based; conditions: erythrocytes, read-out: Selectivity, Mammalian cytotoxicity (IC50; μM) Eryth. Lysis
[7] = molecular target: T1, hERG (Homo sapiens, UniProt Q12809); assay: hERG in Chinese hamster ovary cells; type: cell-based
T1 construct: expressed in transfected cells; host or cells: Chinese hamster ovary cells (from the earlier reading's assay name)

[8] = tested on: Plasmodium falciparum strain Dd2; assay: In vitro potency against P. falciparum strain Dd2; type: cell-based; conditions: read-out: Potency (IC50; nM) Plasmodium spp. Pf Dd2
[9] = Mammalian cytotoxicity, dermal fibroblast; type: cell-based; conditions: human, normal human dermal fibroblasts (Clonetics #CC-2509); read-out: Selectivity, Mammalian cytotoxicity (IC50; μM) Dermal Fibroblast
[10] = tested on: P. falciparum Pf3D7^0087/N9; assay: In vivo efficacy against P. falciparum in humanized mice; conditions: b.i.d.
Description: Briefly, groups of 3 animals were infected on Day 0 with 2×10^7 P. falciparum parasites and were treated orally once per day for 4 days with 5, 25 and 100 mg/kg/day formulated as described above beginning on Day 3 post infection. In parallel, groups of 3 animals were infected on Day 0 with 1×10^7 parasites on Day 0 and received the same doses beginning 1 hr after infection. Parasitemia was assessed by FACS as previously described (Jiménez-Díaz, M.-B., et al. 2009. Cytometry Part A 75:225-235. In the same humanized murine system, efficacy was also tested against P. berghei, with animals infected on Day 0 (Jimenez-Diaz, M. B., et al. 2005. Cytometry A 67:27-36). Results are shown in Table 5.

[11] = tested on: P. falciparum strain 3D7; assay: In vitro potency against P. falciparum strain 3D7 (SYBR green/DAPI); type: cell-based; conditions: Plasmodium falciparum

T1 sequence (Q12809 whole entry): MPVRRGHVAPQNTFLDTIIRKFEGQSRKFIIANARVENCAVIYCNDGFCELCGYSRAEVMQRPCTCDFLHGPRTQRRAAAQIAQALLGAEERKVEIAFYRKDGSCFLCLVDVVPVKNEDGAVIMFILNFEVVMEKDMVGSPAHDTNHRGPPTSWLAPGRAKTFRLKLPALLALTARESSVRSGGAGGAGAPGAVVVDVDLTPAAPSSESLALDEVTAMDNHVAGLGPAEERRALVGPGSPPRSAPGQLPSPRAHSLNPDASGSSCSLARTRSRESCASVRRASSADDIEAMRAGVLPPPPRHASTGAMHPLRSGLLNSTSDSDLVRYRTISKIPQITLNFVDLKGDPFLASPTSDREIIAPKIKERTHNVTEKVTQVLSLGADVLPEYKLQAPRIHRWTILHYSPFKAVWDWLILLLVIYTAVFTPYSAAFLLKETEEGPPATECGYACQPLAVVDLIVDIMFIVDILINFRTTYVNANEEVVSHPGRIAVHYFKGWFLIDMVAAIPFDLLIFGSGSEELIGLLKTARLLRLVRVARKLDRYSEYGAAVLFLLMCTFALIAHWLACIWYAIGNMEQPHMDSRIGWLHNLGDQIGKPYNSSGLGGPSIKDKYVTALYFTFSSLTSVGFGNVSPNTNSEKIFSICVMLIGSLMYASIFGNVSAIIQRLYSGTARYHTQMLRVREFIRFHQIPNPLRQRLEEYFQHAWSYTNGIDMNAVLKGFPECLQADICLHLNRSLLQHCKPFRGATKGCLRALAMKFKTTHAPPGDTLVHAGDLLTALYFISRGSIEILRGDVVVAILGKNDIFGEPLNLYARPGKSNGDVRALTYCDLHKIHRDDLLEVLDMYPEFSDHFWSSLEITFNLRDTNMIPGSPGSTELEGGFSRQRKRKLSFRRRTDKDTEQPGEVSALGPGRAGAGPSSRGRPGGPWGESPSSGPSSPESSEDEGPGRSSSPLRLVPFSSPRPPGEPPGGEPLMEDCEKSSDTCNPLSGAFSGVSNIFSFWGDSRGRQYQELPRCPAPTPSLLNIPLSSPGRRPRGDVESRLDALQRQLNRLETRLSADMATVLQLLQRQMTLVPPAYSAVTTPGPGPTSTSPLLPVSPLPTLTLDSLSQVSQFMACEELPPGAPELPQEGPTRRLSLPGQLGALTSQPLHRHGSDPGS

SMILES: CCOc1ccc(F)cc1[C@@]1(O)C(N)=Nc2ccc(Cl)cc21 (stereo in doubt) [Compound 267]
- Average Day of Recrudescence ([1]; 100 mg/kg/day b.i.d. p.o.): 14 days
- No. Cured ([1]; 100 mg/kg/day b.i.d. p.o.): 0/5
- Recrudescence (no. animals/total) ([1]; 100 mg/kg/day b.i.d. p.o.): 2/4
- % Suppression Day 5 ([1]; 100 mg/kg/day b.i.d. p.o.): 95%
- Average Day of Recrudescence ([1]; 200 mg/kg/day b.i.d. p.o.): 12 days
- No. Cured ([1]; 200 mg/kg/day b.i.d. p.o.): 3/5
- Recrudescence (no. animals/total) ([1]; 200 mg/kg/day b.i.d. p.o.): 2/5
- % Suppression Day 5 ([1]; 200 mg/kg/day b.i.d. p.o.): 100%
- ED50 P. berghei N-clone ([1]; b.i.d.): 32 mg/kg/day
- ED90 P. berghei N-clone ([1]; b.i.d.): 68 mg/kg/day
- cures ([1]; doses of 100-200 mg/kg/day): able to affect cures
- ED50 P. berghei N-clone ([1]; t.i.d.): 35 mg/kg/day
- ED90 P. berghei N-clone ([1]; t.i.d.): 58 mg/kg/day
- ED50 P. berghei ANKA strain GFP MRA-865 [2]: 19 mg/kg/day
- ED90 P. berghei ANKA strain GFP MRA-865 [2]: 30 mg/kg/day
- IC50 [3]: 26 nM
- IC50 [4]: > 195 µM
- IC50 [5]: 331 nM
- IC50 [6]: > 125 µM
- Selectivity, hERG (μM) CHO [7]: 36.6 µM
- IC50 [8]: 65 nM
- IC50 [9]: > 195 µM
- ED50 P. falciparum Pf3D7^0087/N9 [10]: 40 mg/kg/day
- ED90 P. falciparum Pf3D7^0087/N9 [10]: 74 mg/kg/day
- IC50 ([11]; read-out: Potency (IC50; nM) Plasmodium spp. Pf 3D7): 28 nM
- IC50 ([11]; reductions in parasitemia, read-out: IC50 values): 1 to 100 nM
